The record followed here is PMC11035696, “Prospective de novo drug design with deep interactome learning” (Nature Communications, 2024).

Structures are written as SMILES. Several values for one entry are separate records, joined by “and”; a condition that tells them apart may be missing. Identical values can stand only once. Entries after “also recorded” stand apart in the source; their conditions may differ. Bounds are passed on as bounds.

The target of data set [1] is T1, retinoid X receptor (RXR)α (Homo sapiens, UniProt P19793).
T1 construct: RXRα (pFA-CMV-h RXRα-LBD[105], 1 μM Bexarotene); expressed in transfected cells; host or cells: HEK293T
T1 sequence (P19793 227-458 limits assumed): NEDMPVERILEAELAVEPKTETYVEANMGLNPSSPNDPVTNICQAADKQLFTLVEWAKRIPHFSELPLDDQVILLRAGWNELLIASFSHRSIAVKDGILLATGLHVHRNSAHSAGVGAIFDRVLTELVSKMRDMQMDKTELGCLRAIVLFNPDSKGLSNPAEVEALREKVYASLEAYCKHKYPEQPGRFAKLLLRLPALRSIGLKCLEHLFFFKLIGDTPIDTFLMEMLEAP
Briefly: Nuclear receptor selectivity profiling, hybrid reporter gene assay, RXRα. The format is cell-based. As to the method: (§1) Compounds 1–3 were characterized in a hybrid reporter gene assay for their agoniztic effect on human nuclear receptors PPARα/γ/δ, RXRα, FXRα, RARα in HEK293T cells. Compound 1 was tested in an isothermal titration calorimetry (ITC) assay to measure direct binding affinity to the ligand-binding domain of PPARγ. ADME properties were measured in standardized assays at Roche.
PPAR activation was determined in uniform Gal4-hybrid reporter gene assays for the PPARα, PPARγ and PPARδ isoforms in HEK293T cells (German Collection of Microorganisms and Cell Culture GmbH, DSMZ) which were transiently transfected with pFR-Luc (Stratagene, La Jolla, CA, USA; reporter) and pRL-SV40 (Promega, Madison, WI, USA; internal control) and one pFA-CMV-hPPAR-LBD[97] clone, coding for the hinge region and ligand binding domain of the canonical isoform of human PPARα, PPARγ, PPARδ or respectively. Cells were cultured in Dulbecco’s modified Eagle’s medium (DMEM), high glucose supplemented with 10% fetal calf serum (FCS), sodium pyruvate (1 mM), penicillin (100 U ⋅ ml^-1), and streptomycin (100 μg ⋅ ml^-1) at 37 °C and 5% CO2 and seeded in 96-well plates (3 × 10^4 cells per well). After 24 h, medium was changed to Opti-MEM without supplements and cells were transiently transfected using Lipofectamine LTX reagent (Invitrogen) according to the manufacturer’s protocol. Five hours after transfection, cells were incubated with the test compounds in Opti-MEM supplemented with penicillin (100 U ⋅ ml^-1), streptomycin (100 μg ⋅ ml^-1) and 0.1% DMSO for 16 h before luciferase activity was measured using the Dual-Glo Luciferase Assay System (Promega) according to the manufacturer’s protocol on a Tecan Spark luminometer (Tecan Deutschland GmbH, Germany). Firefly luminescence was divided by Renilla luminescence and multiplied by 1000 resulting in relative light units (RLU) to normalize for transfection efficiency and cell growth. Fold activation was obtained by dividing the mean RLU of a test compound by the mean RLU of the untreated control. All samples were tested in at least three biologically independent experiments in duplicates. For dose-response curve fitting and calculation of EC50 values, the equation “[Agonist] versus response (variable slope—four parameters)” was used in GraphPad Prism (version 7.00, GraphPad Software, La Jolla, CA, USA) with fold activation data. The reference agonizts GW7647 (PPARα)[98],[99], pioglitazone (PPARγ)[100],[101] and L165,041 (PPARδ)[102],[103] were used to validate the assays and to monitor assay performance. Nuclear receptor selectivity profiling was performed with corresponding pFA-CMV-hNR-LBD clones and suitable reference agonizts on RARα (pFA-CMV-hRARα-LBD[104], 1 μM tretinoin), LXRα (pFA-CMV-hLXRα-LBD[104], 1 μM TO901317) and RXRα (pFA-CMV-h RXRα-LBD[105], 1 μM Bexarotene).
(A reporter such as luciferase makes a cellular process visible.)

Data set [2] is described as follows: Lipophilicity (LogD pH 7.4). The format is physicochemical. As to the method:
as §1
(§2) SI11Absorption Distribution Metabolism and Excretion and Toxicity Data
(§3) To assess the drug-like characteristics of the newly designed PPAR modulators, a series of tests were conducted covering various aspects of absorption, distribution, metabolism, and excretion (ADME) properties. Specifically, these assessments included the parallel artificial membrane permeability assay (PAMPA) with permeation co- […]
efficients ([…]), LogD measurements, microsomal clearance, hepatocyte clearance, P-glycoprotein (Pgp) efflux ratio and binding and the unbound free fraction. […]
Table S14: Absorption distribution metabolism and excretion (ADME) properties of compounds 1 and 2. The […]
values for […], LogD, protein binding, P-glycoprotein (Pgp) efflux ratio and permeability, and hepato-cyte clearance are presented as the mean and standard deviation, with a sample size of N = 3, i.e., 3 technical replicates each. The values for microsomal clearance and CYP-inhibition represent single point measurements. […]

In data set [3] the target is CYP2C8 (Homo sapiens, UniProt P10632). As to the kind of experiment: CYP inhibition dose-response. The format is in vitro ADME. To be noted: substrate AMODIAQUINE
As to the method: as §2, §3
(§4) efficients ([…]), LogD measurements, microsomal clearance, hepatocyte clearance, P-glycoprotein (Pgp) efflux ratio and binding and the unbound free fraction. Furthermore, the evaluation of inhibition po-tential against cytochrome P450 isoenzymes (CYP) proteins was investigated. For seven selected CYP proteins (i.e., Cyp3A4, Cyp1A2, Cyp2B6, Cyp2C9, Cyp2D6, Cyp2C19, and Cyp2C8) the half maximal inhibitory con-centration (IC50) was determined. (Table S15). […]
(§5) activity in the CYP assays was found.
(§6) Table S14: Absorption distribution metabolism and excretion (ADME) properties of compounds 1 and 2. […]
(§7) The values for microsomal clearance and CYP-inhibition represent single point measurements. […]
(§8) Molecule Enzyme Substrate IC50 (µM)

Data set [4] addresses CYP2C9 (Homo sapiens, UniProt P11712). Briefly: CYP inhibition dose-response. The format is in vitro ADME. Conditions: substrate DICLOFENAC
As to the method:
as §2, §3, §4, §5, §6, §7, §8

The target of data set [5] is CYP2D6 (Homo sapiens, UniProt P10635). Briefly: CYP inhibition dose-response. The class given is in vitro ADME. Conditions: substrate DEXTROMETHORPHAN
How it is done:
as §2, §3, §4, §5, §6, §7, §8

Data set [6] deals with CYP3A4 (Homo sapiens, UniProt P08684). As to the kind of experiment: CYP inhibition dose-response. The class given is in vitro ADME. To be noted: substrate MIDAZOLAM
How it is done:
as §2, §3, §4, §5, §6, §7, §8

The test system of data set [7] is HEK293T cells. As to the kind of experiment: Cytotoxicity assay on HEK293T cells (Celltiter-glo). The class given is cell-based, human. Conditions: 16 h and 24 h, 0.05–20 μM, range of cell numbers, result in words. As to the method: HEK293T cells were seeded at the indicated number per well in DMEM-high glucose, complemented with glutamax, pen-strep, and 10% FBS, in a total of 40 μl of medium. The cells were incubated overnight at 37 °C. Compounds were added to the cells at the indicated concentrations, resulting in a final Dimethylsulfoxid (DMSO) concentration of 0.2%. The compounds were incubated on the cells for either 16 h or 24 h. At the specified time point, the medium was carefully removed from the vessel, leaving only 2 μl in the wells. Celltiter-glo (CTG) reagent (G7572, Promega) was prepared according to the manufacturer’s instructions. Plates with cells were equilibrated at room temperature for 30 min. Subsequently, 25 μl of CTG reagent was added to the cells. The plates were then shaken for 2 min and incubated for an additional 15 min at room temperature. Luminescence was read afterward with BG Pherastar.

Chain of CYP3A4 (P08684 whole entry): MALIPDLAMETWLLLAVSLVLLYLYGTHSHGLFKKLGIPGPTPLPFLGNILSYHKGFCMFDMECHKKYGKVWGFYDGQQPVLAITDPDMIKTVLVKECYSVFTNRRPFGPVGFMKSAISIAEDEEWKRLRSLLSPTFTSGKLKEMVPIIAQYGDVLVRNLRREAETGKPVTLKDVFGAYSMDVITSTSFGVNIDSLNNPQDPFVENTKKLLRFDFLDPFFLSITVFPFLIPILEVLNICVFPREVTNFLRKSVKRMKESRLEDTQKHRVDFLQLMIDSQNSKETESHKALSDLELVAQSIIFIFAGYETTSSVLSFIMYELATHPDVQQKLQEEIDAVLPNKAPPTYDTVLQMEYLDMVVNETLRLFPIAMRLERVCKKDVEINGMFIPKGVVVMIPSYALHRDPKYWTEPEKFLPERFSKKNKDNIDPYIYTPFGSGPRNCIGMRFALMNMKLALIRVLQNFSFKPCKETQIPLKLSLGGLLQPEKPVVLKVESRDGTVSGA
Chain of CYP2C8 (P10632 whole entry): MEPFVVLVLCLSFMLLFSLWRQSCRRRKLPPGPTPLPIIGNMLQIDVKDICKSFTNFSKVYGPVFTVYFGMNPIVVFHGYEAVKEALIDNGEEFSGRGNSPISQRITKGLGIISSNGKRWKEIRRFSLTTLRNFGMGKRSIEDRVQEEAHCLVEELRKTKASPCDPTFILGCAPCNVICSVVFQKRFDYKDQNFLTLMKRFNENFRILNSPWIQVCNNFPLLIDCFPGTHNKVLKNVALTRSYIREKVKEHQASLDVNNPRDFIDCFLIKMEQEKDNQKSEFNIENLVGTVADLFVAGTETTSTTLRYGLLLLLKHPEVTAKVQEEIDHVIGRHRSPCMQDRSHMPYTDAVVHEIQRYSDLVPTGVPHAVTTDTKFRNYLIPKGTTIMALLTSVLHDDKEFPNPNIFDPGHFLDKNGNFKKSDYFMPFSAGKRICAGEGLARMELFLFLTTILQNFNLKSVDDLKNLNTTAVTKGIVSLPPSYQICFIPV
Chain of CYP2D6 (P10635 whole entry): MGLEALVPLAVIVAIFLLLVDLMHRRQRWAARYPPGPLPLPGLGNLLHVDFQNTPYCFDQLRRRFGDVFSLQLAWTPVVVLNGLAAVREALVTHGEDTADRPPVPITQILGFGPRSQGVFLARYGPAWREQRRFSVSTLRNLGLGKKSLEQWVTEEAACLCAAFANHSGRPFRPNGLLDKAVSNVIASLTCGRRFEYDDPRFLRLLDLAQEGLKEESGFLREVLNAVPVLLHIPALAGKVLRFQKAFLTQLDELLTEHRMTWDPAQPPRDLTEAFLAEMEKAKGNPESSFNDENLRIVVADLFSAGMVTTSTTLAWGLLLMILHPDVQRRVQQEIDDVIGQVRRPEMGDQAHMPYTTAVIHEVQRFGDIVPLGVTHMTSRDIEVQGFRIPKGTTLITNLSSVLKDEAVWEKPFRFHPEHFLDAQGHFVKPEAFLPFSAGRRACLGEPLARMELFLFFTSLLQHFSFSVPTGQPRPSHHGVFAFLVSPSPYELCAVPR
Chain of CYP2C9 (P11712 whole entry): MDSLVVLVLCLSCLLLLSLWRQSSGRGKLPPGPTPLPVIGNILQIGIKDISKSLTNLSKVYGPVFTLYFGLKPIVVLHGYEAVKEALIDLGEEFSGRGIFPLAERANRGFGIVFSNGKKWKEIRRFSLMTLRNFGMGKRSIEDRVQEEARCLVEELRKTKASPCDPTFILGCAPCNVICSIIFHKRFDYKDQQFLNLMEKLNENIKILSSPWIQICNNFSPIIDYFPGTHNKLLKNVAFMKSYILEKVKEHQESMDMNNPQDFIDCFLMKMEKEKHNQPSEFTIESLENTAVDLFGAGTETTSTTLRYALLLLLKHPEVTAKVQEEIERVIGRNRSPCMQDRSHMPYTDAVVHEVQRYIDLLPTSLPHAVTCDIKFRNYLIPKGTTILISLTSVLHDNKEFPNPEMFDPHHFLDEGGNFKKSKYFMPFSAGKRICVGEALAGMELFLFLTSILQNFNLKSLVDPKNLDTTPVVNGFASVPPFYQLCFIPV

What is called logD is the decadic logarithm of the distribution of all forms, ionised or not, between an organic phase and buffer at a given pH. Read a high logD as higher lipophilicity. In general, IC50 refers to the point on the concentration scale where inhibition reaches its midpoint. Read a high IC50 as weaker potency in that assay. For `Cc1nnc(-c2ccc(OCCCOc3ccc(CCC(=O)O)c(F)c3)c(F)c2)s1` [Compound 1], the “RXRα reporter activation, replicate values (DMSO ctrl = 1,000)” value in data set [1] (3 µM) is 1,140 and 1,672 and 0,965; in data set [1] (10 µM), 0,945 and 2,262 and 0,954. The logD in data set [2] was 1.5. For the same molecule, the concentration for half-maximal inhibition (IC50) in data set [3], in data set [4], in data set [5] and in data set [6] was over 20 µM each time. The “cytotoxicity on HEK293T cells” value in data set [7] is “did not indicate any cytotoxicity; also recorded: No cytotoxic effects”.

For `COc1ccc(Oc2ccc3ncn(CCOc4ccc(CCC(=O)O)cc4)c3c2)cc1` [Compound 2], the “RXRα reporter activation, replicate values (DMSO ctrl = 1,000)” value in data set [1] (3 µM) is 1,173 and 1,058 and 1,366; in data set [1] (10 µM), 1,398 and 1,193 and 1,167. The same molecule displayed a log distribution coefficient (logD) in data set [2] of 1.7. The concentration for half-maximal inhibition (IC50) in data set [3] is 1.75 µM; in data set [4], over 20 µM; in data set [5], over 20 µM; in data set [6], over 20 µM. In addition, the “cytotoxicity on HEK293T cells” value in data set [7] is listed as “did not indicate any cytotoxicity; also recorded: No cytotoxic effects”.
